# Measurements reported in patent US10166221B2, “Formulations of an LSD1 inhibitor” (Incyte Corporation, priority 2016, dated 2019).
# Where a name gives a salt, the structure may show the parent alone.
# Experiments:
# [1] = Excipient compatibility, mass spectroscopy HPLC method (% Compound 2); type: physicochemical
# Text: (low and high RH at both temperatures).
# [2] = Excipient compatibility, UV HPLC method (degradation, impurities other than Compound 2)
# Experimental: This study was performed to determine stability of Compound 1 di-tosylate salt, Form I, in combination with various oral solid dosage form excipients. […] The data of the blends were compared with a control sample (Compound 1 di-tosylate salt alone) to assess the effect of each excipient relative to Compound 1 di-tosylate salt alone.
# Blends were prepared by screening the components together; aliquots were then weighed for stability testing. The binary blend samples were initially stored under accelerated conditions (50° C./dry, 50° C./75% RH) in open glass vials and analyzed by HPLC to determine the potential for drug substance degradation with each excipient. […] Analysis of a control (Compound 1 di-tosylate salt alone) was included for comparison at each condition.
# Compound 1 di-tosylate salt was blended at the desired ratio of excipient to drug (see Table 7 below) by weighing each material, mixing with a spatula in a vial, and screening the mixture 5 times with an 18 mesh screen. A control sample was included for comparison to the blends. The weight equivalent of approximately 4 mg of Compound 1 di-tosylate salt was added to each glass vial and initially set-up at 50° C./dry (<20% RH) and 50° C./75% RH. Based on results after 1 week at 50° C.; additional samples were set-up at 40° C./dry and 40° C./75% RH. […] The 75% RH chamber was maintained by using a saturated sodium chloride solution in water (inside a closed chamber). The humidity of the 75% RH chamber was verified with a hygrometer (VWR brand). Samples were tested by HPLC after 1 week at 50° C. and 1 and 2 weeks at 40° C. (low and high RH at both temperatures). Data were also measured for samples at 20° C. in closed vials.
# Samples were analyzed by HPLC using the method described below after dilution in 85% H2O (0.1% TFA)/15% acetonitrile to 4 mL, sonication for 5 minutes, and filtration (0.45 μm Acrodisc GHP). One injection per sample was performed at each stability station. Two methods were performed on the stability samples: a UV based HPLC method and a mass spectroscopy HPLC method performed for one impurity (Compound 2).
# UV HPLC Method-Instrument: Agilent 1260 HPLC; Column: Ascentis Express C18 4.6×150 mm; Mobile Phase A: Water (0.1% TFA); Mobile Phase B: Acetonitrile (0.1% TFA); Flow Rate: 1.0 mL/min; Injection volume: 10 μL; UV Detection 214 nm; Column Temperature: 30° C.; Run Time: 33 min; Sample concentration: 1.0 mg/mL as salt; Threshold: 0.1%; Gradient Program:
# Accelerated storage (50° C., 40° C.) conditions were used to identify potential drug-excipient interactions.
# [3] = Crystalline form change under storage conditions; type: physicochemical; conditions: storage conditions of 25° C./60% RH and 40° C./75% RH
# Experimental: (§1) Form HI of Compound 1 di-tosylate salt was prepared during the process of drying a wet sample of Compound 1 di-tosylate salt, Form I, under ambient conditions. Form I slowly absorbed atmospheric moisture and gradually changed to crystalline Form HI.
# as §1, with “HI. […] Form HI can also be generated by purging humidified air (e.g., 60-85% RH) through Form I solid.” for “HI.”
# [4] = DVS moisture uptake analysis; type: physicochemical
# Experimental: Form DH was characterized by DVS. The DVS analysis was performed on a TA Instruments Vapor Sorption Analyzer, model VTI-SA^+. Form DH was generated by pre-drying Form HI on VTI at 40° C. with 0% RH N2 for 3 h. Then the moisture uptake profile was completed in one cycle in 5% RH increments with adsorption from 0% RH to 95% RH followed by desorption in 5% increments from 95% to […]. The equilibration criteria were 0.0010 wt % in 5 minutes with a maximum equilibration time of 180 minutes. All adsorption and desorption were performed at 25° C.
Structure (SMILES),% Compound 2 ([1]; 1 w 50° C./75% RH) [%],% Compound 2 ([1]; 1 w 50° C./dry) [%],"2 W 20° C. % of cmpd 2 ([1]; 20° C., 2 w, closed vials) [%]",wt % of Compound 2 ([1]; 40° C. (dry) 1 W) [wt %],wt % of Compound 2 ([1]; 40° C. (dry) 2 W) [wt %],wt % of Compound 2 ([1]; 40° C./75% RH 1 w) [wt %],wt % of Compound 2 ([1]; 40° C./75% RH 2 w) [wt %],Compound 1 di-tosylate salt degradation (UV Method) ([2]; 1 W 40° C./75% RH) [%],Compound 1 di-tosylate salt degradation (UV Method) ([2]; 1 W 40° C./dry) [%],"Compound 1 di-tosylate salt degradation (UV Method) ([2]; 1 w 50° C./75% RH, open glass vials, peak area percent) [%]","Compound 1 di-tosylate salt degradation (UV Method) ([2]; 1 w 50° C./dry (<20% RH), open glass vials, peak area percent) [%]",Compound 1 di-tosylate salt degradation (UV Method) ([2]; 2 W 40° C./75% RH) [%],Compound 1 di-tosylate salt degradation (UV Method) ([2]; 2 W 40° C./dry) [%],"20° C. 2 w UV method ([2]; 20° C., 2 w, closed vials) [%]",Crystalline form change on storage [3],"Hygroscopicity (DVS) ([4]; adsorption 0% RH to 95% RH, desorption 95% to 85% RH, 25° C.)",Solid collected after DVS ([4]; after DVS at 85% RH)
"COCC1(CN[C@@H]2C[C@H]2c2ccccc2)CCN(CC2(C(=O)O)CCC2)CC1 [Cmpd 1 di-tosylate salt alone, 1-{[4-(methoxymethyl)-4-({[(1R,2S)-2-phenylcyclopropyl]amino}methyl)piperidin-1-yl]methyl}cyclobutanecarboxylic acid bis(4-methylbenzenesulfonate)]",2.47,2.37,0.43,1.4,3.4,1.3,1.9,<0.1,0.43,0.3,1.4,<0.1,0.86,<0.1,converted to Form HI,,
COCC1(CN[C@@H]2C[C@H]2c2ccccc2)CCN(CC2(C(=O)O)CCC2)CC1 [Form DH],,,,,,,,,,,,,,,,hygroscopic,Form HI
